In ChEMBL document CHEMBL1201862, “PubChem BioAssay data set” (2004):
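Following 48 hours of exposure in 96-well plates, responses at five concentrations were used to interpolate endpoints linearly. At the GI50, growth is halved.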 Active and inactive are the calls of the source. Rule as the data show it: active = GI50 up to about 1.1 µM and inactive = higher.

Columns and labels:
Experiment in all cases: NCI-60 cell line screen, 48 h
[1] = system: SF-295
[2] = system: SK-OV-3
[3] = system: M14
[4] = system: TK-10
[5] = system: 786-0
[6] = system: KM12
[7] = system: MOLT-4
[8] = system: IGROV-1
[9] = system: OVCAR-4
[10] = system: SK-MEL-2
[11] = system: K562
[12] = system: DLD-1
[13] = system: SK-MEL-5
[14] = system: HT-29
[15] = system: UACC-257
[16] = system: HL-60
[17] = system: HOP-18
[18] = system: M19-MEL
[19] = system: UO-31
[20] = system: OVCAR-3
[21] = system: CAKI-1
[22] = system: OVCAR-8
[23] = system: HCT-116
[24] = system: SW-620
[25] = system: COLO 205
[26] = system: CCRF-CEM
[27] = system: DMS-114
[28] = system: RPMI-8226
[29] = system: UACC-62
[30] = system: SNB-19
[31] = system: SF-539
[32] = system: SNB-78
[33] = system: A549
[34] = system: EKVX
[35] = system: NCI-H226
[36] = system: HOP-62
[37] = system: HCC 2998
[38] = system: Malme-3M
[39] = system: HOP-92

Measured: GI50

CSc1nc(NC2OC(COC(C)=O)C(OC(C)=O)C(OC(C)=O)C2OC(C)=O)c(/N=C(\C)C(C)=O)c(=O)[nH]1 (centres undefined)
inactive: [1] > 100 µM | [2] > 100 µM | [3] > 100 µM | [4] > 100 µM | [5] > 100 µM | [6] > 100 µM | [7] > 100 µM | [8] > 100 µM | [9] > 100 µM | [10] > 100 µM | [11] > 100 µM | [12] 79.1 µM | [13] > 100 µM | [14] > 100 µM | [15] > 100 µM | [16] > 100 µM | [17] > 100 µM | [18] > 100 µM | [19] > 100 µM | [20] > 100 µM | [21] > 100 µM | [22] > 100 µM | [23] > 100 µM | [24] > 100 µM | [25] > 100 µM | [26] > 100 µM | [27] > 100 µM | [28] > 100 µM | [29] > 100 µM | [30] > 100 µM | [31] > 100 µM | [32] > 100 µM | [33] > 100 µM | [34] > 100 µM | [35] > 100 µM | [36] 42.5 µM | [37] > 100 µM | [38] > 100 µM | [39] > 100 µM
